Reference: the NIST ThermoML archive (doi:10.1007/s10765-009-0602-6)

Assay: molar heat capacity at constant volume; xn = mol fraction of the nth substance listed
Conditions: x1 = 0.2607

N [ammonia] + O
Conditions	molar heat capacity at constant volume [J/K/mol]
581.09 K, Fluid (supercritical or subcritical phases), Mass density=476.25 kg/m3, isochoric heat capacity	67.71
581.18 K, Fluid (supercritical or subcritical phases), Mass density=476.25 kg/m3, isochoric heat capacity	67.34
581.36 K, Fluid (supercritical or subcritical phases), Mass density=476.25 kg/m3, isochoric heat capacity	66.28
581.54 K, Fluid (supercritical or subcritical phases), Mass density=476.25 kg/m3, isochoric heat capacity	66.75
581.62 K, Fluid (supercritical or subcritical phases), Mass density=476.25 kg/m3, isochoric heat capacity	66.08
584.62 K, Fluid (supercritical or subcritical phases), Mass density=476.25 kg/m3, isochoric heat capacity	65.81
584.71 K, Fluid (supercritical or subcritical phases), Mass density=476.25 kg/m3, isochoric heat capacity	65.01
584.8 K, Fluid (supercritical or subcritical phases), Mass density=476.25 kg/m3, isochoric heat capacity	64.64
584.88 K, Fluid (supercritical or subcritical phases), Mass density=476.25 kg/m3, isochoric heat capacity	65.32
584.95 K, Fluid (supercritical or subcritical phases), Mass density=456.58 kg/m3, isochoric heat capacity	82.04
584.95 K, Liquid, Isochoric heat capacity	82.04
584.97 K, Fluid (supercritical or subcritical phases), Mass density=476.25 kg/m3, isochoric heat capacity	65.26
584.98 K, Fluid (supercritical or subcritical phases), Mass density=456.58 kg/m3, isochoric heat capacity	80.98
585.15 K, Fluid (supercritical or subcritical phases), Mass density=476.25 kg/m3, isochoric heat capacity	64.62
585.16 K, Fluid (supercritical or subcritical phases), Mass density=456.58 kg/m3, isochoric heat capacity	80.57
585.31 K, Fluid (supercritical or subcritical phases), Mass density=120.03 kg/m3, isochoric heat capacity	115.43
585.31 K, Liquid, Isochoric heat capacity	115.43
585.34 K, Fluid (supercritical or subcritical phases), Mass density=120.03 kg/m3, isochoric heat capacity	110.25
585.4 K, Fluid (supercritical or subcritical phases), Mass density=120.03 kg/m3, isochoric heat capacity	96.96
585.42 K, Fluid (supercritical or subcritical phases), Mass density=456.58 kg/m3, isochoric heat capacity	79.9
585.48 K, Fluid (supercritical or subcritical phases), Mass density=120.03 kg/m3, isochoric heat capacity	94.87
585.5 K, Fluid (supercritical or subcritical phases), Mass density=456.58 kg/m3, isochoric heat capacity	80.27
585.62 K, Fluid (supercritical or subcritical phases), Mass density=120.03 kg/m3, isochoric heat capacity	76.93
585.68 K, Fluid (supercritical or subcritical phases), Mass density=456.58 kg/m3, isochoric heat capacity	78.28
585.94 K, Fluid (supercritical or subcritical phases), Mass density=120.03 kg/m3, isochoric heat capacity	64.29
586.02 K, Fluid (supercritical or subcritical phases), Mass density=120.03 kg/m3, isochoric heat capacity	59.53
586.11 K, Fluid (supercritical or subcritical phases), Mass density=120.03 kg/m3, isochoric heat capacity	58.12
586.2 K, Fluid (supercritical or subcritical phases), Mass density=120.03 kg/m3, isochoric heat capacity	53.99
586.28 K, Fluid (supercritical or subcritical phases), Mass density=120.03 kg/m3, isochoric heat capacity	54.52
586.37 K, Fluid (supercritical or subcritical phases), Mass density=120.03 kg/m3, isochoric heat capacity	51.14
587.06 K, Fluid (supercritical or subcritical phases), Mass density=456.58 kg/m3, isochoric heat capacity	75.4
587.24 K, Fluid (supercritical or subcritical phases), Mass density=456.58 kg/m3, isochoric heat capacity	75.97
587.41 K, Fluid (supercritical or subcritical phases), Mass density=456.58 kg/m3, isochoric heat capacity	75.31
587.5 K, Fluid (supercritical or subcritical phases), Mass density=456.58 kg/m3, isochoric heat capacity	74.46
587.58 K, Fluid (supercritical or subcritical phases), Mass density=456.58 kg/m3, isochoric heat capacity	76.18
594.14 K, Fluid (supercritical or subcritical phases), Mass density=147.43 kg/m3, isochoric heat capacity	103.92
594.14 K, Liquid, Isochoric heat capacity	103.92
594.15 K, Fluid (supercritical or subcritical phases), Mass density=147.43 kg/m3, isochoric heat capacity	93.04
594.23 K, Fluid (supercritical or subcritical phases), Mass density=147.43 kg/m3, isochoric heat capacity	91.23
594.32 K, Fluid (supercritical or subcritical phases), Mass density=147.43 kg/m3, isochoric heat capacity	82.61
594.49 K, Fluid (supercritical or subcritical phases), Mass density=147.43 kg/m3, isochoric heat capacity	80.43
594.58 K, Fluid (supercritical or subcritical phases), Mass density=120.03 kg/m3, isochoric heat capacity	43.51
594.58 K, Fluid (supercritical or subcritical phases), Mass density=147.43 kg/m3, isochoric heat capacity	67.31
594.66 K, Fluid (supercritical or subcritical phases), Mass density=120.03 kg/m3, isochoric heat capacity	46.88
594.66 K, Fluid (supercritical or subcritical phases), Mass density=147.43 kg/m3, isochoric heat capacity	62.24
594.75 K, Fluid (supercritical or subcritical phases), Mass density=120.03 kg/m3, isochoric heat capacity	46.35
594.75 K, Fluid (supercritical or subcritical phases), Mass density=147.43 kg/m3, isochoric heat capacity	60.82
594.78 K, Fluid (supercritical or subcritical phases), Mass density=120.03 kg/m3, isochoric heat capacity	43.67
594.84 K, Fluid (supercritical or subcritical phases), Mass density=147.43 kg/m3, isochoric heat capacity	66.35
594.92 K, Fluid (supercritical or subcritical phases), Mass density=147.43 kg/m3, isochoric heat capacity	53.4
595.01 K, Fluid (supercritical or subcritical phases), Mass density=120.03 kg/m3, isochoric heat capacity	47.77
595.09 K, Fluid (supercritical or subcritical phases), Mass density=147.43 kg/m3, isochoric heat capacity	56.72
595.1 K, Fluid (supercritical or subcritical phases), Mass density=456.58 kg/m3, isochoric heat capacity	70.87
595.16 K, Fluid (supercritical or subcritical phases), Mass density=376.89 kg/m3, isochoric heat capacity	99.09
595.16 K, Liquid, Isochoric heat capacity	99.09
595.18 K, Fluid (supercritical or subcritical phases), Mass density=147.43 kg/m3, isochoric heat capacity	52.64
595.18 K, Fluid (supercritical or subcritical phases), Mass density=376.89 kg/m3, isochoric heat capacity	96.84
595.18 K, Fluid (supercritical or subcritical phases), Mass density=456.58 kg/m3, isochoric heat capacity	70.11
595.27 K, Fluid (supercritical or subcritical phases), Mass density=376.89 kg/m3, isochoric heat capacity	95.54
595.35 K, Fluid (supercritical or subcritical phases), Mass density=456.58 kg/m3, isochoric heat capacity	71.12
595.44 K, Fluid (supercritical or subcritical phases), Mass density=147.43 kg/m3, isochoric heat capacity	50.03
595.44 K, Fluid (supercritical or subcritical phases), Mass density=376.89 kg/m3, isochoric heat capacity	96.07
595.44 K, Fluid (supercritical or subcritical phases), Mass density=456.58 kg/m3, isochoric heat capacity	68.76
595.53 K, Fluid (supercritical or subcritical phases), Mass density=376.89 kg/m3, isochoric heat capacity	92.7
595.53 K, Fluid (supercritical or subcritical phases), Mass density=456.58 kg/m3, isochoric heat capacity	71.34
595.61 K, Fluid (supercritical or subcritical phases), Mass density=376.89 kg/m3, isochoric heat capacity	94.85
595.61 K, Fluid (supercritical or subcritical phases), Mass density=456.58 kg/m3, isochoric heat capacity	68.53
595.7 K, Fluid (supercritical or subcritical phases), Mass density=147.43 kg/m3, isochoric heat capacity	52.76
595.7 K, Fluid (supercritical or subcritical phases), Mass density=456.58 kg/m3, isochoric heat capacity	70.96
595.78 K, Fluid (supercritical or subcritical phases), Mass density=376.89 kg/m3, isochoric heat capacity	89.45
595.87 K, Fluid (supercritical or subcritical phases), Mass density=376.89 kg/m3, isochoric heat capacity	91.17
595.96 K, Fluid (supercritical or subcritical phases), Mass density=376.89 kg/m3, isochoric heat capacity	88.44
597.16 K, Fluid (supercritical or subcritical phases), Mass density=376.89 kg/m3, isochoric heat capacity	87.9
597.35 K, Fluid (supercritical or subcritical phases), Mass density=160.07 kg/m3, isochoric heat capacity	101.99
597.36 K, Liquid, Isochoric heat capacity	101.99
597.38 K, Fluid (supercritical or subcritical phases), Mass density=160.07 kg/m3, isochoric heat capacity	81.69
597.43 K, Fluid (supercritical or subcritical phases), Mass density=160.07 kg/m3, isochoric heat capacity	69.47
597.5 K, Fluid (supercritical or subcritical phases), Mass density=376.89 kg/m3, isochoric heat capacity	85.95
597.53 K, Fluid (supercritical or subcritical phases), Mass density=160.07 kg/m3, isochoric heat capacity	62.62
597.56 K, Fluid (supercritical or subcritical phases), Mass density=342.18 kg/m3, isochoric heat capacity	110.99
597.56 K, Liquid, Isochoric heat capacity	110.99
